Assay results published in patent publication US4056634A, “Dimercaptoethyl ether sulfonium compounds and use as antiinflammatory and antirheumatic agents” (Whitefin Holding S.A., priority 1975, dated 1977).

Assays:
[1] = in vivo; settings: rat
[2] = tested on: Freund's adjuvant arthritis; test: Freund's adjuvant arthritis test in rats (Perper's design); settings: 0.04 LD50, N = 10; for Δ Volume (ml) (not injected paw; opposite site), x- ± s.e.: arthritic controls 1.68 ± 0.14; for ΔVolume (ml) (injected paw), x- ± s.e.: arthritic controls 3.21 ± 0.27
[3] = tested on: Granuloma pouch; test: "Granuloma pouch" test (Selye), antiinflammatory activity in the rat; settings: 0.06 LD50, N = 10; for Exudate volume (ml), x- ± s.e.: controls 13.2 ± 2.19
[4] = 80 mg/Kg/os daily, n.s. = not significant

Compound: CC(=O)Oc1ccccc1C(=O)O [Acetylsalicylic acid]
- LD50 ([1]; ip): 500 mg/kg
- LD50 ([1]; po): 1500 mg/kg

Compound: CCCCC1C(=O)N(c2ccccc2)N(c2ccccc2)C1=O [Phenylbutazone]
- Δ Volume (not injected paw; opposite site), % inhib. ([2]; 50 mg/Kg/os daily): 0%
- ΔVolume (injected paw), % inhib. ([2]; 50 mg/Kg/os daily): 8%
- Δ Volume (ml) (not injected paw; opposite site), x- ± s.e. ([2]; 50 mg/Kg/os daily): 1.74 ± 0.13 mL
- ΔVolume (ml) (injected paw), x- ± s.e. ([2]; 50 mg/Kg/os daily): 2.97 ± 0.14 mL
- Pouch wall Fresh weight, % inhib. ([3]; 80 mg/Kg/os daily): 27%
- Pouch wall Fresh weight (g), x- ± s.e. ([3]; 80 mg/Kg/os daily, controls 5.10 ± 0.53): 3.72 ± 0.28 g
- Exudate volume (ml), x- ± s.e. ([3]; 80 mg/Kg/os daily): 9.70 ± 1.65 mL
- Exudate volume, % inhib. [3, 4]: 28%
- Pouch wall Fresh weight, % inhib. [3, 4]: 20%

Compound: C[S+](C)CCOCC[S+](C)C [Z.964, 2,2'-bis(dimethylsulfoniumethyl)ether diiodide]
- Δ Volume (not injected paw; opposite site), % inhib. ([2]; 200 mg/Kg/os daily): 63%
- ΔVolume (injected paw), % inhib. ([2]; 200 mg/Kg/os daily): 32%
- Δ Volume (ml) (not injected paw; opposite site), x- ± s.e. ([2]; 200 mg/Kg/os daily): 0.61 ± 0.13 mL
- ΔVolume (ml) (injected paw), x- ± s.e. ([2]; 200 mg/Kg/os daily): 2.17 ± 0.24 mL
- LD50 ([1]; ip): 1150 mg/kg
- LD50 ([1]; po): > 5000 mg/kg
- Pouch wall Fresh weight, % inhib. ([3]; 300 mg/Kg/os daily): 48%
- Exudate volume, % inhib. ([3]; 300 mg/Kg/os daily, * P<0.05): 53%
- Pouch wall Fresh weight, % inhib. ([3]; 300 mg/Kg/os daily, * P<0.05): 38%
- Pouch wall Fresh weight (g), x- ± s.e. ([3]; 300 mg/Kg/os daily, controls 5.10 ± 0.53): 2.70 ± 0.27 g
- Exudate volume (ml), x- ± s.e. ([3]; 300 mg/Kg/os daily): 6.15 ± 0.69 mL
- Pouch wall Fresh weight (g), x- ± s.e. ([3]; 300 mg/Kg/os daily, controls 1126.7, s.e. 156.7): 708.9 ± 79.0
